These results are taken from US8703957B2 (Janssen Pharmaceutica NV, priority 2001, dated 2014).

Experiment [1] concerns the target T1, human neutrophil cathepsin G (Homo sapiens, UniProt P08311).
T1 construct: human neutrophil cathepsin G (Athens Research and Technology); purchased Athens Research and Technology; host or cells: human neutrophils (from the enzyme's name)
T1 sequence (P08311 21-243 limits assumed): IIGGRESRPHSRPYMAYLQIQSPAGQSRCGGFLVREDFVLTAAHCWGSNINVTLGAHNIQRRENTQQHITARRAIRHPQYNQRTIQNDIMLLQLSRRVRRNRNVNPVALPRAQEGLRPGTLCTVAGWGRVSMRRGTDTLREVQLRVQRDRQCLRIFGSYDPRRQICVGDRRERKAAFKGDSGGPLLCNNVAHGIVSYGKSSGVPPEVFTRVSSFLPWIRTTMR
The experiment in a line: Enzyme-catalyzed hydrolysis assay, cathepsin G (chromogenic substrate Suc-Ala-Ala-Pro-Phe-pNa). The experiment is classed as biochemical. The conditions noted are these: 70 nM enzyme, 5 mM substrate, pH 7.4, 37° C., 30 minutes; read-out: IC50 (μM) CatG. The method, then: (§1) Enzyme-catalyzed hydrolysis rates were measured spectrophotometrically using human neutrophil cathepsin G (Athens Research and Technology) or human skin chymase (Cortex Biochem), a chromogenic substrate (Suc-Ala-Ala-Pro-Phe-pNa) (Bachem) in aqueous buffer (100 mM Hepes, 500 mM NaCl, pH 7.4 for catG; 450 mM Tris, 1800 mM NaCl, pH 8.0 for chymase), and a microplate reader (Molecular Devices). […] Percent inhibition was calculated by comparing the initial reaction slopes of the samples without inhibitor to those with inhibitor. IC50 values were determined using a four parameter fit logistics model. The term “NT” indicates a compound that was not tested.

Experiment [2] has as its target T2, human skin chymase (Homo sapiens, UniProt P23946).
T2 construct: human skin chymase (Cortex Biochem); purchased Cortex Biochem; host or cells: human skin (from the enzyme's name)
T2 sequence (P23946 22-247): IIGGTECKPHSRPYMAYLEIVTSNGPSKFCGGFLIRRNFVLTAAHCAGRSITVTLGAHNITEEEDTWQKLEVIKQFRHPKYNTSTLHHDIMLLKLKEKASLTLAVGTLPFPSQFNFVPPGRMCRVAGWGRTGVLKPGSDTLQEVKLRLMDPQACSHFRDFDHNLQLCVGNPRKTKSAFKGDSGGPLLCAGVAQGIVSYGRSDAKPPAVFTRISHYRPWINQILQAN
The experiment in a line: Enzyme-catalyzed hydrolysis assay, chymase (chromogenic substrate Suc-Ala-Ala-Pro-Phe-pNa). The conditions noted are these: 10 nM enzyme, 0.7 mM substrate, pH 8.0, 37° C., 30 minutes. The experiment is classed as biochemical. On the procedure: as §1

As a reminder, the IC50 is the concentration that gives 50% inhibition.

The structures appear in SMILES notation.

As to `CN(C(=O)c1cc2ccccc2cc1C(=O)C(c1cccc2ccccc12)P(=O)(O)O)C1CCC(c2ccccc2)CC1` (centres unmarked) [Compound 1, [2-[3-[[methyl(4-phenylcyclohexyl)amino]carbonyl]-2-naphthalenyl]-1-(1-naphthalenyl)-2-oxoethyl]-phosphonic acid], the IC50 in experiment [1] is 0.083 ± 0.014 µM; in experiment [2], 0.0053 ± 0.0019 µM.

For the compound `CN(C(=O)c1cc2ccccc2cc1C(=O)C(c1cccc2ccccc12)P(=O)(O)O)C1CCN(C(=O)c2ccc3cc(Br)ccc3c2)CC1` (centres unmarked) [Compound 4], the IC50 was 0.09 ± 0.02 µM in experiment [1] and 0.0039 ± 0.0001 µM in experiment [2].

Take `CN(C(=O)c1cc2ccccc2cc1C(=O)C(c1cccc2ccccc12)P(=O)(O)O)C1CCN(C(=O)/C=C/c2ccccc2)CC1` (centres unmarked) [Compound 6, [2-[3-[[methyl[1-[(2E)-1-oxo-3-phenyl-2-propenyl]-4-piperidinyl]amino]carbonyl]-2-naphthalenyl]-1-(1-naphthalenyl)-2-oxoethyl]-phosphonic acid]: the IC50 was determined as 0.067 ± 0.014 µM in experiment [1] and 0.0035 ± 0.0015 µM in experiment [2].

`O=C(c1cc2ccccc2cc1C(=O)N1CCC(c2ccccc2)CC1)C(c1cccc2ccccc12)P(=O)(O)O` (centres unmarked) [Compound 7, [1-(1-naphthalenyl)-2-oxo-2-[3-[(4-phenyl-1-piperidinyl)carbonyl]-2-naphthalenyl]ethyl]-phosphonic acid]: the IC50 in experiment [1] was found to be 0.21 ± 0.05 µM; in experiment [2], 0.008 ± 0.022 µM.

In the case of `O=C(c1cc2ccccc2cc1C(=O)N1CCC2(CC1)C(=O)NCN2c1ccccc1)C(c1cccc2ccccc12)P(=O)(O)O` (centres unmarked) [Compound 8, [1-(1-naphthalenyl)-2-oxo-2-[3-[(4-oxo-1-phenyl-1,3,8-triazaspiro[4.5]dec-8-yl)carbonyl]-2-naphthalenyl]ethyl]-phosphonic acid], the values for the 50% inhibitory concentration (IC50) in experiment [1] and in experiment [2] were 0.13 ± 0.01 µM and 0.0074 ± 0.0022 µM, respectively.

On to `Cc1ccc(/C=C/C(=O)N2CCC(N(C)C(=O)c3cc4ccccc4cc3C(=O)C(c3cccc4ccccc34)P(=O)(O)O)CC2)cc1` (centres unmarked) [Compound 9, [2-[3-[[methyl[1-[(2E)-3-(4-methylphenyl)-1-oxo-2-propenyl]-4-piperidinyl]amino]carbonyl]-2-naphthalenyl]-1-(1-naphthalenyl)-2-oxoethyl]-phosphonic acid], for which the IC50 in experiment [1] came out at 0.053 ± 0.015 µM; in experiment [2], 0.011 ± 0.003 µM.

As to `CN(C(=O)c1cc2ccccc2cc1C(=O)C(c1cccc2ccccc12)P(=O)(O)O)C1CCN(C(=O)/C=C/c2ccc(C(F)(F)F)cc2)CC1` (centres unmarked) [Compound 10, [2[3-[[methyl[1-[(2E)-1-oxo-3-[4-(trifluoromethyl)-phenyl]-2-propenyl]-4-piperidinyl]amino]carbonyl]-2-naphthalenyl]-1-(1-naphthalenyl)-2-oxoethyl]-phosphonic acid], the IC50 turned out to be 0.053 ± 0.016 µM in experiment [1] and 0.014 ± 0.006 µM in experiment [2].

Regarding `CN(C(=O)c1cc2ccccc2cc1C(=O)C(c1ccccc1)P(=O)(O)O)C1CCN(C(=O)c2ccc3ccccc3c2)CC1` (centres unmarked) [Compound 11, [2-[3-[[methyl[1-(2-naphthalenylcarbonyl)-4-piperidinyl]amino]carbonyl]-2-naphthalenyl]-2-oxo-1-phenylethyl]-phosphonic acid], the IC50 in experiment [1] is 4.9 ± 2.8 µM; in experiment [2] it was 0.032 µM.

With `COc1ccc(C2CCN(C(=O)c3cc4ccccc4cc3C(=O)C(c3cccc4ccccc34)P(=O)(O)O)CC2)cc1` (centres unmarked) [Compound 12, [2-[3-[[4-(4-methoxyphenyl)-1-piperidinyl]carbonyl]-2-naphthalenyl]-1-(1-naphthalenyl)-2-oxoethyl]-phosphonic acid], the IC50 in experiment [1] turned out to be 0.179 ± 0.038 µM; in experiment [2] it was 0.0073 ± 0.0017 µM.

As to `CN(C)c1ccc(C=CC(=O)N2CCC(N(C)C(=O)c3cc4ccccc4cc3C(=O)C(c3cccc4ccccc34)P(=O)(O)O)CC2)cc1` (centres unmarked) [Compound 13, [2-3-[[[1-[(2E)-3-[4-(dimethylamino)phenyl]-1-oxo-2-propenyl]-4-piperidinyl]methylamino]carbonyl]-2-naphthalenyl]-1-(1-naphthalenyl)-2-oxoethyl]-phosphonic acid], the figures for the IC50 in experiment [1] and in experiment [2] were 0.064 ± 0.008 µM and 0.004 µM, respectively.

Regarding `COc1cccc(C2CCN(C(=O)c3cc4ccccc4cc3C(=O)C(c3cccc4ccccc34)P(=O)(O)O)CC2)c1` (centres unmarked) [Compound 14, [2-[3-[[4-(3-methoxyphenyl)-1-piperidinyl]carbonyl]-2-naphthalenyl]-1-(1-naphthalenyl)-2-oxoethyl]-phosphonic acid], the IC50 was found to be 0.23 ± 0.03 µM in experiment [1] and 0.01 ± 0.001 µM in experiment [2].

`CN(C(=O)c1cc2ccccc2cc1C(=O)C(c1cccc2ccccc12)P(=O)(O)O)C1CCN(C(=O)c2ccccc2)CC1` (centres unmarked) [Compound 15] came in with an IC50 in experiment [2] of 0.017 ± 0.005 µM.

For `O=C(c1cc2ccccc2cc1C(=O)N1CCC(c2nc3ccccc3s2)CC1)C(c1cccc2ccccc12)P(=O)(O)O` (centres unmarked) [Compound 16, [2-[3-[[4-(2-benzothiazolyl)-1-piperidinyl]carbonyl]-2-naphthalenyl]-1-(1-naphthalenyl)-2-oxoethyl]-phosphonic acid], the IC50 in experiment [1] turned out to be 0.19 ± 0.02 µM; in experiment [2] it was 0.0085 ± 0.0023 µM.

As for `CN(C(=O)c1cc2ccccc2cc1C(=O)C(c1cccc2ccccc12)P(=O)(O)O)C1CCN(C(=O)CCc2ccc(C(F)(F)F)cc2)CC1` (centres unmarked) [Compound 18, [2-[3-[[methyl[1-[1-oxo-3-[4-(trifluoromethyl)phenyl]-propyl]-4-piperidinyl]amino]carbonyl]-2-naphthalenyl]-1-(1-naphthalenyl)-2-oxoethyl]-phosphonic acid], the IC50 in experiment [1] was 0.028 ± 0.006 µM; in experiment [2] it was 0.001 µM.

For the compound `O=C(c1cc2ccccc2cc1C(=O)N1CCC(c2ccccc2)C1)C(c1cccc2ccccc12)P(=O)(O)O` (centres unmarked) [Compound 19, [1-(1-naphthalenyl)-2-oxo-2-[3-[(3-phenyl-1-pyrrolidinyl)carbonyl]-2-naphthalenyl]ethyl]-phosphonic acid], the concentration for half-maximal inhibition (IC50) in experiment [1] was 0.238 ± 0.03 µM; in experiment [2], 0.022 ± 0.062 µM.

As to `CC(C)C(=O)N1CCC(N(C)C(=O)c2cc3ccccc3cc2C(=O)C(c2cccc3ccccc23)P(=O)(O)O)CC1` (centres unmarked) [Compound 20, [2-[3-[[methyl[1-(2-methyl-1-oxopropyl)-4-piperidinyl]amino]carbonyl]-2-naphthalenyl]-1-(1-naphthalenyl)-2-oxoethyl]-phosphonic acid], the IC50 in experiment [1] came to 0.09 ± 0.023 µM; in experiment [2], 0.004 ± 0.002 µM.

For the compound `COP(=O)(O)C(C(=O)c1cc2ccccc2cc1C(=O)N(C)C1CCN(C(=O)c2ccc3ccccc3c2)CC1)c1cccc2ccccc12` (centres unmarked) [Compound 23, [2[3-[[methyl[1-(2-naphthalenylcarbonyl)-4-piperidinyl]amino]carbonyl]-2-naphthalenyl]-1-(1-naphthalenyl)-2-oxoethyl]-phosphonic acid methyl ester], the IC50 in experiment [1] was 0.67 µM; in experiment [2], 0.416 µM.

Turning to `O=C(c1cc2ccccc2cc1C(=O)N1CCC(CCc2ccccc2)C1)C(c1cccc2ccccc12)P(=O)(O)O` (centres unmarked) [Compound 25, [1-(1-naphthalenyl)-2-oxo-2-[3-[[3-(2-phenylethyl)-1-pyrrolidinyl]carbonyl]-2-naphthalenyl]ethyl]-phosphonic acid], the IC50 in experiment [1] came to 0.156 ± 0.028 µM; in experiment [2] it was 0.0097 ± 0.0035 µM.

Take `CC1CCC(N(C)C(=O)c2cc3ccccc3cc2C(=O)C(c2cccc3ccccc23)P(=O)(O)O)CC1` (centres unmarked) [Compound 27, [2-[3-[[methyl(4-methylcyclohexyl)amino]carbonyl]-2-naphthalenyl]-1-(1-naphthalenyl)-2-oxoethyl]-phosphonic acid]: the IC50 worked out at 0.07 ± 0.01 µM in experiment [1] and 0.0051 ± 0.0022 µM in experiment [2].

As for `O=C(c1cc2ccccc2cc1C(=O)N1CCN(S(=O)(=O)c2ccc3ccccc3c2)CC1)C(c1cccc2ccccc12)P(=O)(O)O` (centres unmarked) [Compound 35], the IC50 in experiment [1] was 0.56 ± 0.18 µM.

For `O=C(c1cc2ccccc2cc1C(=O)N1CCN(C(=O)Cc2ccc3ccccc3c2)CC1)C(c1cccc2ccccc12)P(=O)(O)O` (centres unmarked) [Compound 37], the IC50 in experiment [1] stood at 0.74 ± 0.29 µM.

Turning to `O=C(c1cc2ccccc2cc1C(=O)N1CCN(C(=O)c2ccc3ccccc3c2)CC1)C(c1cccc2ccccc12)P(=O)(O)O` (centres unmarked) [Compound 38], in experiment [1], the IC50 turned out to be 0.78 ± 0.22 µM.

Consider `COc1ccc(N2CCN(C(=O)c3cc4ccccc4cc3C(=O)C(c3cccc4ccccc34)P(=O)(O)O)CC2)cc1` (centres unmarked) [Compound 40], for which the IC50 in experiment [1] was 0.17 ± 0.05 µM.

For the compound `O=C(NCc1ccc(S(=O)(=O)N2CCN(C(=O)c3cc4ccccc4cc3C(=O)C(c3cccc4ccccc34)P(=O)(O)O)CC2)s1)c1ccccc1` (centres unmarked) [Compound 41], the IC50 in experiment [1] was determined as 0.31 µM.

`O=C(c1cc2ccccc2cc1C(=O)N1CCN(S(=O)(=O)c2c(Cl)nc3sccn23)CC1)C(c1cccc2ccccc12)P(=O)(O)O` (centres unmarked) [Compound 42]: the IC50 in experiment [1] came out at 0.14 ± 0.03 µM.

As to `O=C(c1cc2ccccc2cc1C(=O)N1CCN(C(=O)Nc2ccc3ccccc3c2)CC1)C(c1cccc2ccccc12)P(=O)(O)O` (centres unmarked) [Compound 43], the IC50 in experiment [1] was 0.95 ± 0.21 µM.
